# In patent US20210275518A1, “METHODS OF USING REBASTINIB IN THE TREATMENT OF DISORDERS” (Deciphera Pharmaceuticals, LLC, priority 2020, published 2021):
# Key:
# mesothelioma = test: Phase 1b/2 rebastinib + paclitaxel, Part 1 patient with mesothelioma; type: in vivo, human; conditions: one patient; 50 mg BID rebastinib + paclitaxel 80 mg/m^2, reduced at Cycle 4 to 25 mg BID + 60 mg/m^2; two prior lines carboplatin and alimta; Cycle 8, Day 1
# Experimental: The study consists of two parts (Part 1 and Part 2). In Part 1, patients were assigned to one of two pre-defined dose levels of rebastinib (50 or 100 mg BID) in combination with paclitaxel administered by intravenous (IV) infusion at 80 mg/m^2. Paclitaxel is to be administered by IV infusion at 80 mg/m^2 over approximately 60 minutes on Day 1, Day 8 and Day 15 of repeated 28-day cycles. Rebastinib is to be administered orally prior to the paclitaxel infusion.
# Part 1 included treatment of a patient with mesothelioma with 50 mg BID rebastinib and paclitaxel at 80 mg/m^2. The patient had two prior lines of treatment with carboplatin and alimta.
# ovarian cancer = test: Phase 1b/2 rebastinib + paclitaxel, Part 2 Cohort 3 (RECIST v1.1, CA-125 response); type: in vivo, human
# Description: Upon determination of the RP2D, Part 2 is initiated to dose up to 165 evaluable patients using the RP2D across five indication-specific cohorts. A Simon's two-stage design is applied to Part 2 to further evaluate the safety, tolerability, and preliminary efficacy of rebastinib in combination with paclitaxel in triple-negative breast (Cohort 1), inflammatory breast (Cohort 2), ovarian (Cohort 3), endometrial adenocarcinoma (Cohort 4), and gynecologic carcinosarcoma (Cohort 5) cancers. Each cohort initially enrolls up to 18 evaluable patients in the first stage. Patients must receive at least 1 dose of the combination and have 1 post-baseline assessment (including assessment of clinical progression) or be discontinued prior to the postbaseline disease assessment due to an AE at least possibly related to rebastinib, to be considered evaluable. Tumor response is assessed according to Response Evaluation Criteria in Solid Tumors (RECIST) Version 1.1. The decision to enroll patients beyond the first stage is based on response assessments obtained after the first post-dose response assessment of the last patient enrolled in the first stage of a cohort. […] If ≤4 responses are seen in a cohort, the cohort will be terminated. If >4 responses are seen prior to the last evaluable patient in the first stage, expanding the cohort may be triggered earlier. Enrollment in each cohort will pause between the first and second stage of the Simon two-stage for evaluation of response. Patients will receive study treatment until they develop progressive disease, experience unacceptable toxicity, or withdraw consent.
# 29 patients with ovarian cancer were enrolled in this portion of the study as a safety population. Patients were treated with rebastinib (50 or 100 mg BID) in combination with 80 mg/m^2 intravenous weekly paclitaxel (day 1, day 8, and day 15 of repeated 28-day cycles). 10 of the patients treated with rebastinib were at a starting dose of 100 mg BID and 80 mg/m^2 weekly paclitaxel, of which the doses of 7 were reduced to 50 mg BID and 80 mg/m^2 weekly paclitaxel, and […] were at a starting dose of 50 mg BID and 80 mg/m^2 weekly paclitaxel. 23 (79%) patients received ≥4 prior anticancer regimens, and all patients received prior platinum and taxane-based therapy; 89% received anti-angiogenic therapy, 62% received anti-PARP therapy, and 31% received immunotherapy.
# 24 of the 29 patients met the modified intention-to-treat (mITT) criteria. Anti-tumor activity was assessed using RECIST v1.1 and Gynecological Cancer Intergroup CA-125 response. From 24 patients in the mITT population, the objective response rate was 38% and the clinical benefit rate at 8 weeks was 88%.
# 38 patients in a platinum-resistant ovarian cancer cohort were enrolled in this portion of the study as a safety population. Patients were treated with rebastinib (50 or 100 mg BID) in combination with 80 mg/m^2 intravenous weekly paclitaxel (day 1, day 8, and day 15 of repeated 28-day cycles). 34 of the 38 patients met the met the modified intention-to-treat (mITT) criteria. 27 (71%) patients received ≥4 prior anticancer regimens, and 97% patients received prior platinum and taxane-based therapy; 84% received bevacizumab, 66% received a PARP inhibitor, 31% received immunotherapy, and the average number of lines of therapy after platinum resistance was 2.
# [1] = tested on: Low Passage Champions TUMORGRAFT Models of Human Mesothelioma; test: Preclinical rebastinib/carboplatin combination efficacy in mesothelioma PDx models; type: in vivo, immunocompromised mice; conditions: Model 2; 25 mg/kg rebastinib intraperitoneal + 20 mg/kg carboplatin intravenous
# Experimental: This study was conducted to obtain preclinical evidence of rebastinib/carboplatin combination efficacy in mesothelioma to support clinical development. The study was an in vivo evaluation of rebastinib single agent and in combination with carboplatin (SOC), in Low Passage Champions TUMORGRAFT® Models of Human Mesothelioma in immunocompromised mice.
# Mesothelioma PDx models were studied each with 8 animals per group for total of 4 groups per model. The study endpoint was when the mean tumor volume of the control reaches 1500 mm^3 or 60 days max. Terminal tumors were be collected, fixed, and embedded.
# [2] = Cohort 3, time point 1, of the twelve with stable disease at Cycle 3, Day 1, Cycle 5, Day 1
# [3] = Cohort 3, time point 1, rebastinib + paclitaxel, Cycle 3, Day 1
# [4] = Cohort 3, time point 2, 17 evaluable patients
# [5] = Table 1, Cohort 3, time point 4, mITT N = 34, patients (%)
# [6] = Table 1, Cohort 3, time point 4, n 12
compound,measurement,setting,value
CNC(=O)c1cc(Oc2ccc(NC(=O)Nc3cc(C(C)(C)C)nn3-c3ccc4ncccc4c3)c(F)c2)ccn1 [rebastinib],Tumor response,mesothelioma,partial response
same,Patients with partial response,ovarian cancer; [2],three
same,Patients with stable disease,ovarian cancer; [2],four
same,Patients with partial response (second statement),"ovarian cancer; Cohort 3, time point 1, of the twelve with stable disease at Cycle 3, Day 1, Cycle 5, Day 1 (stated a second time)",one
same,Patients with stable disease,"ovarian cancer; Cohort 3, time point 1, of the twelve with stable disease at Cycle 3, Day 1, Cycle 5, Day 8",one
same,Patients with stable disease,"ovarian cancer; Cohort 3, time point 1, of the twelve with stable disease at Cycle 3, Day 1, Cycle 8, Day 1",two
same,Patients with partial response,"ovarian cancer; Cohort 3, time point 1, of the two with partial response at Cycle 3, Day 1, Cycle 5, Day 1",one
same,Patients with partial response,ovarian cancer; [3],Two
same,Patients with stable disease,ovarian cancer; [3],twelve
same,CBR,ovarian cancer; [4],82%
same,ORR,ovarian cancer; [4],29%
same,Stable diseases,ovarian cancer; [4],9
same,Partial responses,"ovarian cancer; Cohort 3, time point 2, 17 evaluable patients, rebastinib 100 or 50 mg BID + paclitaxel",5
same,"Muscular weakness, patients","ovarian cancer; Cohort 3, time point 2, initially 100 mg BID rebastinib (10 patients)",4 patients
same,Muscular weakness at reduced dose,"ovarian cancer; Cohort 3, time point 2, reduced dose of 50 mg BID",No additional muscular weakness
same,"CA-125 response, patients","ovarian cancer; Cohort 3, time point 3, 17 patients with CA-125 measurements",10 (59%)
same,Clinical benefit rate at 8 weeks,"ovarian cancer; Cohort 3, time point 3, 24 patients mITT",88%
same,Objective response rate,"ovarian cancer; Cohort 3, time point 3, 24 patients mITT, rebastinib 50 or 100 mg BID with weekly paclitaxel 80 mg/m^2",38%
same,CA-125 response,"ovarian cancer; Cohort 3, time point 4, 17 of 26 evaluable patients",65.4%
same,Clinical benefit rate at 8 weeks,"ovarian cancer; Cohort 3, time point 4, 34 patients mITT",88%
same,Objective response rate (confirmed+unconfirmed),"ovarian cancer; Cohort 3, time point 4, platinum-resistant ovarian cancer, 34 patients mITT, rebastinib 50 or 100 mg BID with weekly paclitaxel 80 mg/m^2",35%
same,Best Overall Response: Confirmed Partial Response,ovarian cancer; [5],5 (14.7%)
same,Best Overall Response: Not Evaluable,ovarian cancer; [5],3 (8.8%)
same,Best Overall Response: Partial Response,ovarian cancer; [5],12 (35.3%)
same,Best Overall Response: Progressive Disease,ovarian cancer; [5],1 (2.9%)
same,Best Overall Response: Single Response Awaiting Confirmation,ovarian cancer; [5],4 (11.8%)
same,Best Overall Response: Stable Disease,ovarian cancer; [5],18 (52.9%)
same,Best Overall Response: Unconfirmed Single Response,ovarian cancer; [5],3 (8.8%)
same,"Duration of Response, Events (%)",ovarian cancer; [6],5 (41.7%)
same,"Time to Response, Mean (SD)",ovarian cancer; [6],3.1 (1.3)
same,"Duration of Response, Kaplan-Meier Median (80% CI)","ovarian cancer; Table 1, Cohort 3, time point 4, n 12, NE: Not evaluated","5.5 (1.9, NE)"
same,Tumor inhibition,[1],38%
